PMC11547093, “Novel Phenoxyalkanoic Acid Derivatives as Free Fatty Acid Receptor 4 Agonists for Treating Type 2 Diabetes Mellitus” (International Journal of Molecular Sciences, 2024)
One block for each compound: values may come before it.

Key:
[1] = pharmacokinetic study in ICR mice; assay type: in vivo; settings: oral 10 mg/kg
Description: The AUC was calculated using the trapezoidal method.
Plasma was collected and precipitated using two volumes of acetonitrile containing an internal standard. This step was followed by centrifugation at 15.680 g for 10 min after vortexing for 5 min. The supernatant was diluted with acetonitrile, and 10 µL of the supernatant was analyzed by Waters LC-PDA-MS/MS to determine plasma drug levels. Pharmacokinetic parameters were determined using mean data from four mice at each time point. Statistical analysis of the data was performed using the DAS 2.1.1 statistical software program (BioVoice, Shanghai, China).

[2] = biological target: T1, human FFAR1 (Homo sapiens, UniProt O14842); assay: calcium influx assay, hFFAR1 (hGPR40) agonistic activity in transfected CHO cells; assay type: cell-based
T1 construct: expressed in transfected cells; host or cells: CHO cells

[3] = tested on: DIO mice; assay: anti-hyperglycemic effects (OGTT, insulin) in diet-induced obese (DIO) mice; assay type: in vivo, C57BL/6 mice; settings: for reduction of blood glucose AUC versus vehicle-treated group: AUC -30 to 120 min
Description: During the experimental period, plasma insulin levels were measured 30 min after glucose administration using an insulin ELISA Kit.
Plasma insulin levels were measured using a mouse insulin RIA kit 30 min after oral glucose loading (Beijing North Institute of Biological Technology, Beijing, China).

[4] = tested on: normal ICR mice; assay: oral glucose tolerance test in normal ICR mice; settings: 20 mg/kg by gavage 30 min before glucose 2 g/kg, AUC 0-120 min
Description: Compounds (20 mg/kg) or the vehicle was administered by gavage 30 min before glucose administration (2 g/kg). […] The test compounds were dissolved in 0.5% methyl cellulose (MC) and vortexed before the study initiation. […] The exact dose volume was calculated separately for each animal. […] Blood glucose levels were measured using blood glucose test strips (Sannuo GA-3 type; Changsha, China).

[5] = biological target: T2, human FFAR4 (Homo sapiens, UniProt Q5NUL3); assay: cell-based
T2 sequence (Q5NUL3 1-361): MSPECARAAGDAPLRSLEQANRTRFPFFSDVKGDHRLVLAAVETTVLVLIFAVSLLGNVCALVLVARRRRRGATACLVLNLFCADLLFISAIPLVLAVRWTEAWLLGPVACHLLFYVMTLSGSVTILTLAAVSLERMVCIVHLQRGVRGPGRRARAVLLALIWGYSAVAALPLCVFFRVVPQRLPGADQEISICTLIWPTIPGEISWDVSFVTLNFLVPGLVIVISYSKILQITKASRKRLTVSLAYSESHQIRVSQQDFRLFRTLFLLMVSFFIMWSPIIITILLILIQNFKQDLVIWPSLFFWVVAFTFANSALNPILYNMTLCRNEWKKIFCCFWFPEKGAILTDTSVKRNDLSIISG

T1 sequence (O14842 whole entry): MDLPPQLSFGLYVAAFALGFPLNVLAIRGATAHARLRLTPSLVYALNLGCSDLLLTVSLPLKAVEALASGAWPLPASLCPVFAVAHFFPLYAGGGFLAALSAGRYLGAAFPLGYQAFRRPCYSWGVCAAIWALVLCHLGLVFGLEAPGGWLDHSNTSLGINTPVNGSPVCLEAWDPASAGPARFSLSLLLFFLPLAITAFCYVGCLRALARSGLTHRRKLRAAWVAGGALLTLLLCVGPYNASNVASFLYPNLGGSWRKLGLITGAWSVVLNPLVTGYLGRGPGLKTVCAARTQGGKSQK

Tmax ([1]; male, mouse, plasma): 0.5 h
AUC ([1]; male, mouse, plasma, 0 to 24 h, mean ± SD of four mice): 9830 ± 2930 ng·h/mL
Cmax ([1]; male, mouse, plasma, 0.5% methyl cellulose, mean ± SD of four mice): 3140 ± 1150 ng/mL
half-life ([1]; male, mouse, plasma, mean ± SD of four mice): 1.51 ± 0.51 h
Cmax relative to TUG-891 [1]: 2.5 times
potency in stimulating FFAR4 over FFAR1 (selectivity) ([2]; FFAR4 versus FFAR1): approximately 400 fold
EC50 ([2]; human FFAR1 transfected CHO cells, calcium influx): 32.9 µM
hypoglycemia during the experiment ([3]; doses up to 100 mg/kg oral): no hypoglycemia was observed
EC50 [5]: 0.0786 µM
SMILES: Cc1ccc(-c2ccc(F)cc2NC(=O)c2ccc(OCC(=O)O)c(F)c2)cc1 [Compound 10f, 2-(2-fluoro-4-((4-fluoro-4′-methyl-[1,1′-biphenyl]-2-yl)carbamoyl)phenoxy)acetic acid]
reduction of blood glucose AUC versus vehicle-treated group ([3]; 30 mg/kg oral 30 min before glucose 2 g/kg): 20.1%
reduction of blood glucose AUC versus vehicle-treated group ([3]; 100 mg/kg oral 30 min before glucose 2 g/kg): 32.4%
hypoglycemic effect ([3]; doses exceeding 10 mg/kg oral): significant hypoglycemic activity
plasma insulin level versus control group ([3]; doses greater than 10 mg/kg, 30 min after glucose administration): significantly higher
hypoglycemic effect ([3]; lower doses 1 mg/kg and 3 mg/kg oral): did not exhibit significant hypoglycemic effects
reduction of blood glucose AUC versus vehicle-treated group [4]: 30.8%

EC50 [5]: 0.189 µM
SMILES: Cc1ccc(-c2ccc(F)cc2NC(=O)c2ccc(OCCCC(=O)O)cc2)cc1 [Compound 2f, 4-(4-((4-fluoro-4′-methyl-[1,1′-biphenyl]-2-yl)carbamoyl)phenoxy)butanoic acid]

EC50 [5]: 0.246 µM
SMILES: Cc1ccc(-c2ccc(F)cc2NC(=O)c2ccc(OCCCC(=O)O)cc2C)cc1 [Compound 8f, 4-(4-((4-fluoro-4′-methyl-[1,1′-biphenyl]-2-yl)carbamoyl)-3-methylphenoxy)butanoic acid]

EC50 [5]: 0.189 µM
SMILES: Cc1ccc(-c2ccc(F)cc2NC(=O)c2ccc(OCC(=O)O)cc2C)cc1 [Compound 7f, 2-(4-((4-fluoro-4′-methyl-[1,1′-biphenyl]-2-yl)carbamoyl)-3-methylphenoxy)acetic acid]

EC50 [5]: 0.136 µM
SMILES: Cc1ccc(-c2ccc(F)cc2NC(=O)c2ccc(OCC(=O)O)cc2)cc1 [Compound 1f, 2-(4-((4-fluoro-4′-methyl-[1,1′-biphenyl]-2-yl)carbamoyl)phenoxy)acetic acid]

EC50 [5]: 0.218 µM
SMILES: Cc1ccc(-c2ccc(F)cc2NC(=O)c2ccc(OCCCCC(=O)O)c(C)c2)cc1 [Compound 6f, 5-(4-((4-fluoro-4′-methyl-[1,1′-biphenyl]-2-yl)carbamoyl)-2-methylphenoxy)pentanoic acid]

EC50 [5]: 0.236 µM
SMILES: Cc1ccc(-c2ccc(F)cc2NC(=O)c2ccc(OCCCCC(=O)O)cc2)cc1 [Compound 3f, 5-(4-((4-fluoro-4′-methyl-[1,1′-biphenyl]-2-yl)carbamoyl)phenoxy)pentanoic acid]

EC50 [5]: 0.0932 µM
SMILES: Cc1ccc(-c2ccc(F)cc2NC(=O)c2ccc(OCCCC(=O)O)c(F)c2)cc1 [Compound 11f, 4-(2-fluoro-4-((4-fluoro-4′-methyl-[1,1′-biphenyl]-2-yl)carbamoyl)phenoxy)butanoic acid]
reduction of blood glucose AUC versus vehicle-treated group [4]: 20.0%

EC50 [5]: 0.113 µM
SMILES: Cc1ccc(-c2ccc(F)cc2NC(=O)c2ccc(OCCCC(=O)O)c(C)c2)cc1 [Compound 5f, 4-(4-((4-fluoro-4′-methyl-[1,1′-biphenyl]-2-yl)carbamoyl)-2-methylphenoxy)butanoic acid]
reduction of blood glucose AUC versus vehicle-treated group [4]: 16.7%

EC50 [5]: 0.145 µM
SMILES: Cc1ccc(-c2ccc(F)cc2NC(=O)c2ccc(OCC(=O)O)c(C)c2)cc1 [Compound 4f, 2-(4-((4-fluoro-4′-methyl-[1,1′-biphenyl]-2-yl)carbamoyl)-2-methylphenoxy)acetic acid]

EC50 [5]: 0.279 µM
SMILES: Cc1ccc(-c2ccc(F)cc2NC(=O)c2ccc(OCCCCC(=O)O)cc2C)cc1 [Compound 9f, 5-(4-((4-fluoro-4′-methyl-[1,1′-biphenyl]-2-yl)carbamoyl)-3-methylphenoxy)pentanoic acid]

EC50 [5]: 0.127 µM
SMILES: Cc1ccc(-c2ccc(F)cc2NC(=O)c2ccc(OCCCCC(=O)O)c(F)c2)cc1 [Compound 12f, 5-(2-fluoro-4-((4-fluoro-4′-methyl-[1,1′-biphenyl]-2-yl)carbamoyl)phenoxy)pentanoic acid]
